Measurements from article PMC9777025, “Silibinin Overcomes EMT-Driven Lung Cancer Resistance to New-Generation ALK Inhibitors” (Cancers, 2022).

Key:
H2228 = assay: cells; parameters: species or system H2228/CR, H3122, H3122/CR; MTT cell viability assay, absorbance at 570 nm, IC50 by interpolation; details: Homo sapiens, NCI-H2228; without silibinin
Method: (§1) 2.5. Cell Viability Assay The cell viability effects of ALK–TKIs and silibinin were determined using the colorimetric MTT (3-4,5-dimethylthiazol-2-yl-2,5-diphenyl-tetrazolium bromide) reduction assay. Dose-response curves to graded concentrations of drugs were plotted as a percentage of the control cell absorbance, which was obtained from control cells containing the vehicle processed simultaneously. For each treatment, cell viability was evaluated using the following equation: (OD570 of the treated sample/OD570 of the untreated sample) × 100. Sensitivity to agents was expressed in terms of the concentrations required for a 50% (IC50) reduction in cell viability. Since the percentage of control absorbance was considered to be the surviving fraction of cells, the IC50 values were defined as the concentration of drug that produced a 50% reduction in control absorbance (by interpolation).

H2228/CR = system: T1, H2228/CR; assay: cells; parameters: species or system H3122, H3122/CR; MTT cell viability assay, absorbance at 570 nm, IC50 by interpolation; details: Homo sapiens, NCI-H2228; without silibinin
T1 construct: crizotinib-resistant H2228
Method: as §1

H3122 = assay: cells; parameters: species or system H2228, H2228/CR, H3122/CR; MTT cell viability assay, absorbance at 570 nm, IC50 by interpolation; details: Homo sapiens, NCI-H3122; without silibinin
Method: as §1

H3122/CR = system: T2, H3122/CR; assay: cells; parameters: species or system H2228, H2228/CR; MTT cell viability assay, absorbance at 570 nm, IC50 by interpolation; details: Homo sapiens, NCI-H3122; without silibinin
T2 construct: crizotinib-resistant H3122
Method: as §1

TGFβR1/ALK5 = target: T3, TGFβR1/ALK5 (Homo sapiens, UniProt P36897); assay: LanthaScreen Eu kinase binding assay (TR-FRET tracer displacement), 10-point titration
T3 construct: gene TGFBR1
T3 sequence (P36897 34-503): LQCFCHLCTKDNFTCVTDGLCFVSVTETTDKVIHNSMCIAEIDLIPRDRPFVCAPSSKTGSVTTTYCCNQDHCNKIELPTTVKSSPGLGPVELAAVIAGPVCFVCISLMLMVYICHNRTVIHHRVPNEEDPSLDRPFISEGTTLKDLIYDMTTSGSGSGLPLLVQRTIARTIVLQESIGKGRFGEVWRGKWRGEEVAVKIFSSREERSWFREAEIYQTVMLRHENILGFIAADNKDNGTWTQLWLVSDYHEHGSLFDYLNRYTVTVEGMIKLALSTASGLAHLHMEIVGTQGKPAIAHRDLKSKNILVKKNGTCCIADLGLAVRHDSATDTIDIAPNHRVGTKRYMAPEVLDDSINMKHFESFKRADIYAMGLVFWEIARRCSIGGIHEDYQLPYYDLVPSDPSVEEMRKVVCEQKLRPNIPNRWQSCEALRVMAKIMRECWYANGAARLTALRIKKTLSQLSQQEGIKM

TGFβR2 = target: T4, TGFβR2 (Homo sapiens, UniProt P37173); assay: as above
T4 construct: gene TGFBR2
T4 sequence (P37173 23-567): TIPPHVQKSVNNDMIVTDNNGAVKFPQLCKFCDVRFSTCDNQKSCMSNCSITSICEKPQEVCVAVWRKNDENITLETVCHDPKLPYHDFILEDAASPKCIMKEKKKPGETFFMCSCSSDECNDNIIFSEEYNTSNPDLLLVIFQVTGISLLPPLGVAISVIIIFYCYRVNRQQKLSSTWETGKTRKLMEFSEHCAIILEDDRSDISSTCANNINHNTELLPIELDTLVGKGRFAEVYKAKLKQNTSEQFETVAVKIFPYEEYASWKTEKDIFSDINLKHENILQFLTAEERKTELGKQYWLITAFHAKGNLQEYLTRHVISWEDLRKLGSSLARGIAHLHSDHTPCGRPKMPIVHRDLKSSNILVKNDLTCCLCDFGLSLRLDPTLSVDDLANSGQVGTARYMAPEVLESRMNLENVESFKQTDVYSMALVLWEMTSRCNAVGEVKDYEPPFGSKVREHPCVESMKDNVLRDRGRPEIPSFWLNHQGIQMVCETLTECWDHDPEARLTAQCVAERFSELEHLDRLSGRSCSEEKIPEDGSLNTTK

IC50 (H2228) [nM] | IC50 (H2228/CR) [nM] | IC50 (H3122) [nM] | IC50 (H3122/CR) [nM] | IC50 (TGFβR1/ALK5) [nM] | IC50 (TGFβR2) [nM] | SMILES
1000 | 83000 | 4 | 20 | – | – | C[C@H]1Oc2cc(cnc2N)-c2c(nn(C)c2C#N)CN(C)C(=O)c2ccc(F)cc21 [lorlatinib]
– | – | – | – | 70000 | 56000 | COc1cc(C2Oc3cc([C@H]4Oc5cc(O)cc(O)c5C(=O)[C@@H]4O)ccc3OC2CO)ccc1O (mixture of isomers) [silibinin]
500 | 3800 | 20 | 120 | – | – | COc1cc(N2CCC(N3CCN(C)CC3)CC2)ccc1Nc1ncc(Cl)c(Nc2ccccc2P(C)(C)=O)n1 [brigatinib]
2100 | 10600 | 290 | 1080 | – | – | C[C@@H](Oc1cc(-c2cnn(C3CCNCC3)c2)cnc1N)c1c(Cl)ccc(F)c1Cl [crizotinib]
